In US9963434B2, “N-arylmethyl sulfonamide negative modulators of NR2A” (LUC THERAPEUTICS, priority 2013, dated 2018) one finds IC50 data, which are given here for 29 compounds.

Like-named read-outs stand apart in the source and are kept apart here. Some results are limits rather than exact numbers.

In the test the target is NR1/NR2A (Homo sapiens (Human), UniProt Q05586+Q12879). Put plainly: FDSS Ca2+ influx inhibition assay in HEK293 cells expressing NR1/NR2A. The format is cell-based. Conditions: 3 μM glutamate, 3 μM glycine, 1 mM Ca2+. On the procedure:
Cell Culture and plating: HEK293 cells expressing NR1/NR2A (Chantest, Cleveland, Ohio) were grown to 70-80% confluency as an adherent monolayer in standard tissue culture flasks at 37° C., 5% CO2 per supplier's instructions.
After induction, cell culture medium was removed and cells were rinsed once with Ca^2+ and Mg^2+-free Dulbecco's phosphate buffered saline. Cells were then removed from the flask using TrypLE™ Express (Life Technologies) according to the manufacturer's instructions and collected to 50 ml centrifuge tubes. Following two washes in Ca^2+/Mg^2+-free HBSS with 20 mM HEPES (HHnoCa), cells were counted and viability assessed using trypan blue. To load cells with Ca^2+-sensitive dye, they were resuspended in fluo-8 plus Component B (AAT Bioquest Products) diluted in HHnoCa and incubated 15 minutes at 37° C., followed by 30 minutes at room temp (in dark). Cells were then washed and resuspended in HHnoCa to remove extracellular dye and plated in 384-well plates (Falcon, uncoated) at 20,000-30,000 cells/well in a final volume of 25 μL/well.
FDSS Assay: To each well of the plate, 10 μL test compound, control (MK801) or HHnoCa buffer was added to a final concentration of 10 μM with a final concentration of DMSO of 0.1%. Following 10 minutes pre-incubation in the dark, plates are loaded onto the Hamamatsu FDSS 6000. After collecting baseline fluorescence images, 3 μM glutamate, 3 μM glycine, and 1 mM Ca^2+ in HHnoCa buffer is added to each well, and Ca^2+ is recorded for 3 minutes. Data were processed by computing ratio of fluorescence at the end of data collection to baseline fluorescence to assess degree of Ca^2+ influx inhibition relative to that observed in MK801.

The mark [1] stands for this setting: inhibition relative to MK801, read-out: NR2A IC50.

NR1/NR2A, sequence (Q12879 23-1464, other chains not shown): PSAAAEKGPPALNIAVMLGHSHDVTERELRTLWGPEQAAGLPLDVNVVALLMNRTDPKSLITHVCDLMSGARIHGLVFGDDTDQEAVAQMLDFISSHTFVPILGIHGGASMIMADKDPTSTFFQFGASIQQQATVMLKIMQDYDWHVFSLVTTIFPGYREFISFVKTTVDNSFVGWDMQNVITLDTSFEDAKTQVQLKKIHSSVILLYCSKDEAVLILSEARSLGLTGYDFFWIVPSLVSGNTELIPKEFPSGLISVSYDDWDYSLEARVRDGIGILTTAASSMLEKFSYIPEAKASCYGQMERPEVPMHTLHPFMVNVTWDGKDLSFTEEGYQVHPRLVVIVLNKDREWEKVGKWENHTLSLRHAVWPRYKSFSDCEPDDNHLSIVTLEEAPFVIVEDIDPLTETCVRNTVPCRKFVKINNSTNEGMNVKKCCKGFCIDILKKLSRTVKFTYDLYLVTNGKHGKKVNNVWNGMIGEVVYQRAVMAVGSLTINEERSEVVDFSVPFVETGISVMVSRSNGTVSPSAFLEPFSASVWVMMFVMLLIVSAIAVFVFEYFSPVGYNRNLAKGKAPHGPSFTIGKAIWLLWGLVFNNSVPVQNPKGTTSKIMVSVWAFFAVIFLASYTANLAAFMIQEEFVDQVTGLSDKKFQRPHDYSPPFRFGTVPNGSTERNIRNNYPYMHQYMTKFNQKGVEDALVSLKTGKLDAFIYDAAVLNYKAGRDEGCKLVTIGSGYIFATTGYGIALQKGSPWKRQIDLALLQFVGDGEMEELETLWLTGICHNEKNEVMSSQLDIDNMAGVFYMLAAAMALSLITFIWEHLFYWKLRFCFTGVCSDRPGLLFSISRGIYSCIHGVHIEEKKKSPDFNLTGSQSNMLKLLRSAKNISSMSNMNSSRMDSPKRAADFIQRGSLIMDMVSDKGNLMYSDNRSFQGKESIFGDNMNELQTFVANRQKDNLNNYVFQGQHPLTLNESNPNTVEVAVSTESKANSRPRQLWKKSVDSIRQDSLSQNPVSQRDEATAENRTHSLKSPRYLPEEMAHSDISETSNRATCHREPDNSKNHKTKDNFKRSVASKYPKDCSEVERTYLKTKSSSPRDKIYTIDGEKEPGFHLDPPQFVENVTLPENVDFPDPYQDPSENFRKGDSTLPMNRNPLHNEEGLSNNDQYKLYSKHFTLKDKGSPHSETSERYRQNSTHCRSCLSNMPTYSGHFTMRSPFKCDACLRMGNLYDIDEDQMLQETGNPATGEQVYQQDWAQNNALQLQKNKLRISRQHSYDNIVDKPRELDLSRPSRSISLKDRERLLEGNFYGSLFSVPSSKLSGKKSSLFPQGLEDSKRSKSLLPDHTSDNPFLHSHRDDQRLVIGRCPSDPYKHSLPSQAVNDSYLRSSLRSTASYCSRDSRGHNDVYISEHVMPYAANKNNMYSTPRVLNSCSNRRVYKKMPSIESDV

As for `COc1cccc(CNC(=O)c2ccc(CNS(=O)(=O)c3ccc(F)c(Cl)c3)nn2)c1` [6-(3-chloro-4-fluorobenzenesulfon-amidomethyl)-N-[(3-methoxyphenyl)methyl] pyridazine-3-carboxamide], the IC50 runs as follows: under setting [1], 10 µM; (read-out: Binned Activity) over 10 µM.
Regarding `Cc1ncc(CNC(=O)c2cnc(CNS(=O)(=O)c3ccc(Cl)nc3Cl)cn2)s1` [5-(2,6-dichloropyridine-3-sulfonamidomethyl)-N-[(2-methyl-1,3-thiazol-5-yl)methyl]pyrazine-2-carboxamide], the IC50 is, setting by setting: under setting [1], 10 µM; (read-out: Binned Activity) over 10 µM.
In the case of `O=C(NCc1cncnc1)c1ccc(CNS(=O)(=O)c2ccc(F)c(Cl)c2)nn1` [6-(3-chloro-4-fluorobenzenesulfon-amidomethyl)-N-(pyrimidin-5-ylmethyl)pyridazine-3-carboxamide], the IC50 reads like this: under setting [1], 10 µM; (read-out: Binned Activity) over 10 µM.
For the compound `Cc1nnc(CNC(=O)c2ccc(CNS(=O)(=O)c3ccc(F)c(Cl)c3)nc2)o1` [6-(3-chloro-4-fluorobenzenesulfon-amidomethyl)-N-[(5-methyl-1,3,4-oxadiazol-2-yl)methyl]pyridine-3-carboxamide], the IC50 is, setting by setting: under setting [1], 10 µM; (read-out: Binned Activity) over 10 µM.
Take `Cc1ncc(CNC(=O)c2cnc(CNS(=O)(=O)c3cc4ccccc4s3)cn2)s1` [5-(1-benzothiophene-2-sulfonamidomethyl)-N-[(2-methyl-1,3-thiazol-5-yl)methyl]pyrazine-2-carboxamide]: the IC50 was 10 µM under setting [1] and over 10 µM (read-out: Binned Activity).
As to `COc1ccc(CNC(=O)c2ccc(CNS(=O)(=O)c3ccc(F)c(Cl)c3)cn2)cc1` [5-(3-chloro-4-fluorobenzenesulfon-amidomethyl)-N-[(4-methoxyphenyl)methyl] pyridine-2-carboxamide], the IC50 is, setting by setting: under setting [1], 10 µM; (read-out: Binned Activity) over 10 µM.
On to `Cc1nc(CNC(=O)c2cnc(CNS(=O)(=O)c3ccc(F)c(Cl)c3)cn2)cs1` [5-(3-chloro-4-fluorobenzenesulfon-amidomethyl)-N-[(2-methyl-1,3-thiazol-4-yl)methyl]pyrazine-2-carboxamide], for which the IC50 is 10 µM under setting [1] and over 10 µM (read-out: Binned Activity).
On to `O=C(NCc1ccccn1)c1ccc(CNS(=O)(=O)c2ccc(F)c(Cl)c2)nc1` [6-(3-chloro-4-fluorobenzenesulfon-amidomethyl)-N-(pyridin-2-ylmethyl)pyridine-3-carboxamide], for which the IC50 reads like this: under setting [1], 10 µM; (read-out: Binned Activity) over 10 µM.
With `Cc1ncc(CNC(=O)c2cnc(CNC(=O)c3cc(Cl)ccc3F)c(C)n2)s1` [5-{[(5-chloro-2-fluorophenyl)formamido]methyl}-6-methyl-N-[(2-methyl-1,3-thiazol-5-yl)methyl]pyrazine-2-carboxamide], the IC50 is 10 µM under setting [1] and over 10 µM (read-out: Binned Activity).
Regarding `O=C(NC1CCS(=O)(=O)C1)c1ccc(CNS(=O)(=O)c2ccc(F)c(Cl)c2)nc1` (stereo not shown) [6-(3-chloro-4-fluorobenzenesulfon-amidomethyl)-N-(1,1-dioxo-1λ^6-thiolan-3-yl)pyridine-3-carboxamide], the IC50 is, setting by setting: under setting [1], 10 µM; (read-out: Binned Activity) over 10 µM.
Consider `O=C(NCc1ncccc1C(F)(F)F)c1ccc(CNS(=O)(=O)c2ccc(F)c(Cl)c2)nc1` [6-(3-chloro-4-fluorobenzenesulfon-amidomethyl)-N-{[3-(trifluoromethyl)pyridin-2-yl]methyl}pyridine-3-carboxamide], for which the IC50 was 10 µM under setting [1] and over 10 µM (read-out: Binned Activity).
For `Cn1nccc1CNC(=O)c1ccc(CNS(=O)(=O)c2ccc(F)c(Cl)c2)cn1` [5-(3-chloro-4-fluorobenzenesulfon-amidomethyl)-N-[(1-methyl-1H-pyrazol-5-yl)methyl]pyridine-2-carboxamide], in that order: 10 µM and over 10 µM.
Regarding `Cc1ncc(CNC(=O)c2cnc(CNC(=O)c3cccc(C#N)c3)cn2)s1` [5-{[(3-cyanophenyl)formamido]methyl}-N-[(2-methyl-1,3-thiazol-5-yl)methyl]pyrazine-2-carboxamide], the IC50 was 10 µM under setting [1] and over 10 µM (read-out: Binned Activity).
Turning to `O=C(NCc1cnco1)c1ccc(CNS(=O)(=O)c2ccc(F)c(Cl)c2)cn1` [5-(3-chloro-4-fluorobenzenesulfon-amidomethyl)-N-(1,3-oxazol-5-ylmethyl)pyridine-2-carboxamide], where the note is “read-out: Binned Activity”, the IC50 lay within 1 to 10 µM.
Regarding `O=C(NCc1cocn1)c1ccc(CNS(=O)(=O)c2ccc(F)c(Cl)c2)nn1` [6-(3-chloro-4-fluorobenzenesulfon-amidomethyl)-N-(1,3-oxazol-4-ylmethyl)pyridazine-3-carboxamide], the IC50 is 10 µM under setting [1] and over 10 µM (read-out: Binned Activity).
On to `Cn1nccc1CNC(=O)c1ccc(CNS(=O)(=O)c2ccc(F)c(Cl)c2)nc1` [6-(3-chloro-4-fluorobenzenesulfon-amidomethyl)-N-[(1-methyl-1H-pyrazol-5-yl)methyl]pyridine-3-carboxamide], for which the IC50 is 10 µM under setting [1] and over 10 µM (read-out: Binned Activity).
Consider `O=C(NCc1cnccn1)c1ccc(CNS(=O)(=O)c2ccc(F)c(Cl)c2)cn1` [5-(3-chloro-4-fluorobenzenesulfon-amidomethyl)-N-(pyrazin-2-ylmethyl)pyridine-2-carboxamide], for which the IC50 (read-out: Binned Activity) fell in the range of 1 to 10 µM.
In the case of `CC(=O)N1CCc2cc(S(=O)(=O)NCc3cnc(C(=O)NCc4cnc(C)s4)cn3)ccc21` [5-(1-acetyl-2,3-dihydro-1H-indole-5-sulfonamidomethyl)-N-[(2-methyl-1,3-thiazol-5-yl)methyl]pyrazine-2-carboxamide], the IC50 under setting [1] stood at 10 µM and the IC50 (read-out: Binned Activity) is over 10 µM.
Consider `Cc1ncc(CNC(=O)c2cnc(CNC(=O)c3cc(F)cc(F)c3)c(C)n2)s1` [5-{[(3,5-difluorophenyl)form-amido]methyl}-6-methyl-N-[(2-methyl-1,3-thiazol-5-yl)methyl]pyrazine-2-carboxamide], for which the IC50 runs as follows: under setting [1], 10 µM; (read-out: Binned Activity) over 10 µM.
In the case of `CN(C)CCCNC(=O)c1ccc(CNS(=O)(=O)c2ccc(F)c(Cl)c2)cn1` [5-(3-chloro-4-fluorobenzenesulfon-amidomethyl)-N-[3-(dimethylamino)propyl] pyridine-2-carboxamide], the IC50 under setting [1] is 10 µM and the IC50 (read-out: Binned Activity) is over 10 µM.
`Cc1nnc(CNC(=O)c2ccc(CNS(=O)(=O)c3ccc(F)c(Cl)c3)cn2)s1` [5-(3-chloro-4-fluorobenzenesulfon-amidomethyl)-N-[(5-methyl-1,3,4-thiadiazol-2-yl)methyl]pyridine-2-carboxamide]: the IC50 (read-out: Binned Activity) is 1 to 10 µM.
In the case of `Cc1ccncc1CNC(=O)c1ccc(CNS(=O)(=O)c2ccc(F)c(Cl)c2)cn1` [5-(3-chloro-4-fluorobenzenesulfon-amidomethyl)-N-[(4-methylpyridin-3-yl)methyl]pyridine-2-carboxamide], the IC50 (read-out: Binned Activity) fell in the range of 0.1 to 1 µM.
Take `O=C(NCc1ncc(C(F)(F)F)cc1Cl)c1ccc(CNS(=O)(=O)c2ccc(F)c(Cl)c2)nc1` [6-(3-chloro-4-fluorobenzenesulfon-amidomethyl)-N-{[3-chloro-5-(trifluoromethyl)pyridin-2-yl]methyl}pyridine-3-carboxamide]: the IC50 is, setting by setting: under setting [1], 10 µM; (read-out: Binned Activity) over 10 µM.
Turning to `O=C(NCc1ncccn1)c1ccc(CNS(=O)(=O)c2ccc(F)c(Cl)c2)nn1` [6-(3-chloro-4-fluorobenzenesulfon-amidomethyl)-N-(pyrimidin-2-ylmethyl)pyridazine-3-carboxamide], the IC50 reads like this: under setting [1], 10 µM; (read-out: Binned Activity) over 10 µM.
Turning to `O=C(NCc1ccncn1)c1cnc(CNS(=O)(=O)c2ccc(F)c(Cl)c2)cn1` [5-(3-chloro-4-fluorobenzenesulfon-amidomethyl)-N-(pyrimidin-4-ylmethyl)pyrazine-2-carboxamide], the IC50 runs as follows: under setting [1], 10 µM; (read-out: Binned Activity) over 10 µM.
Turning to `Cn1cccc1CNC(=O)c1cnc(CNS(=O)(=O)c2ccc(F)c(Cl)c2)cn1` [5-(3-chloro-4-fluorobenzenesulfon-amidomethyl)-N-[(1-methyl-1H-pyrrol-2-yl)methyl]pyrazine-2-carboxamide], the IC50 (read-out: Binned Activity) is 1 to 10 µM.
`Cc1ncsc1CNC(=O)c1ccc(CNS(=O)(=O)c2ccc(F)c(Cl)c2)cn1` [5-(3-chloro-4-fluorobenzenesulfon-amidomethyl)-N-[(4-methyl-1,3-thiazol-5-yl)methyl]pyridine-2-carboxamide]: the IC50 was 10 µM under setting [1] and over 10 µM (read-out: Binned Activity).
Take `O=C(NCc1ccncc1)c1cnc(CNS(=O)(=O)c2ccc(F)c(Cl)c2)cn1` [5-(3-chloro-4-fluorobenzenesulfon-amidomethyl)-N-(pyridin-4-ylmethyl)pyrazine-2-carboxamide]: the IC50 (read-out: Binned Activity) lay in the range of 1 to 10 µM.
For the compound `Cc1ncc(CNC(=O)c2ccc(CNS(=O)(=O)c3ccsc3)cn2)s1` [N-[(2-methyl-1,3-thiazol-5-yl)methyl]-5-(thiophene-3-sulfonamidomethyl) pyridine-2-carboxamide], the IC50 by setting is: under setting [1], 10 µM; (read-out: Binned Activity) over 10 µM.
